Each structure is given as a SMILES string. Some results are limits rather than exact numbers.

We go through 26 compounds from patent US12655130B2 (ASSEMBLY BIOSCIENCES, INC., priority 2020, dated 2026).

One assay concerns HBV viral load (viral production from HepAD38 cells). The assay is described as follows: Activity of test compounds on viral production from HepAD38 cells (viral load by qPCR of HBV core sequence). The format is cell-based. The note with it: Hepatitis B virus, HePAD38, 120 h, viral load lowering, 5 days, qPCR of supernatant, read-out: VL HepAD38 EC50 range. The method, boiled down:
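EC50 and CC50 come from four-parameter logistic fits: HBV core DNA in supernatant by TaqMan qPCR against DNA standards, normalised to DMSO controls, and cell viability by CellTiter-Glo. Cells were plated at 50,000/well without tetracycline (2% FBS) and exposed to compounds (highest 10 μM) for 5 days, 37 °C.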
A word on the EC50: it is the concentration giving half of the maximal effect. As for `CC(CO)Oc1cc(C2(O)CC3CC(c4ncn(C)c4C(=O)Nc4ccc(F)c(Cl)c4)CC3C2)n(C)n1` (centres unmarked) [Example 202, N-(3-Chloro-4-fluorophenyl)-4-(5-hydroxy-5-(3-((1-hydroxypropan-2-yl)oxy)-1-methyl-1H-pyrazol-5-yl)octahydropentalen-2-yl)-1-methyl-1H-imidazole-5-carboxamide], the concentration giving a half-maximal response (EC50) is below 10 nM.
Same read-out and setting: the same measure for `CC(=O)c1nn(C)c(C2(O)CC3CC(c4ncn(C)c4C(=O)Nc4ccc(F)c(Cl)c4)CC3C2)c1F` (centres unmarked) [Example 65, 4-(5-(3-Acetyl-4-fluoro-1-methyl-1H-pyrazol-5-yl)-5-hydroxyoctahydropentalen-2-yl)-N-(3-chloro-4-fluorophenyl)-1-methyl-1H-imidazole-5-carboxamide]: below 10 nM.
Still for that read-out and setting: the figure for `Cn1cnc(C2CC3CC(O)(c4ccc(F)cc4)CC3C2)c1C(=O)Nc1ccc(F)c(Cl)c1` (centres unmarked) [Example 7, N-(3-Chloro-4-fluorophenyl)-4-(5-(4-fluorophenyl)-5-hydroxyoctahydropentalen-2-yl)-1-methyl-1H-imidazole-5-carboxamide] is below 10 nM; for `Cc1cn[nH]c1C1(O)CC2CC(c3ncn(C)c3C(=O)Nc3ccc(F)c(Cl)c3)CC2C1` (centres unmarked) [Example 135, N-(3-chloro-4-fluorophenyl)-4-(5-hydroxy-5-(4-methyl-1H-pyrazol-5-yl)octahydropentalen-2-yl)-1-methyl-1H-imidazole-5-carboxamide] it is below 10 nM; for `Cn1cnc(C2CC3CC(O)(c4c(F)cnn4C)CC3C2)c1C(=O)Nc1ccc(F)c(Cl)c1` (centres unmarked) [Example 124, N-(3-chloro-4-fluorophenyl)-4-(5-(4-fluoro-1-methyl-1H-pyrazol-5-yl)-5-hydroxyoctahydropentalen-2-yl)-1-methyl-1H-imidazole-5-carboxamide] it is below 10 nM.
The same measure, in the same setting: the figure for `Cn1cnc(C2CC3CC(O)(c4cc(C(F)F)nn4C)CC3C2)c1C(=O)Nc1ccc(F)c(Cl)c1` (centres unmarked) [Example 133, N-(3-chloro-4-fluorophenyl)-4-(5-(3-(difluoromethyl)-1-methyl-1H-pyrazol-5-yl)-5-hydroxyoctahydropentalen-2-yl)-1-methyl-1H-imidazole-5-carboxamide] is below 10 nM; for `Cn1cnc(C2CC3CC(O)(c4c(Cl)c(N)nn4C)CC3C2)c1C(=O)Nc1ccc(F)c(Cl)c1` (centres unmarked) [Example 98, 4-(5-(3-amino-4-chloro-1-methyl-1H-pyrazol-5-yl)-5-hydroxyoctahydropentalen-2-yl)-N-(3-chloro-4-fluorophenyl)-1-methyl-1H-imidazole-5-carboxamide] it is below 10 nM.
As for `CC(C)C(N)C(=O)Nc1cc(C2(O)CC3CC(c4ncn(C)c4C(=O)Nc4ccc(F)c(Cl)c4)CC3C2)n(C)n1` (centres unmarked) [Example 220, 4-(5-(3-(2-Amino-3-methylbutanamido)-1-methyl-1H-pyrazol-5-yl)-5-hydroxyoctahydropentalen-2-yl)-N-(3-chloro-4-fluorophenyl)-1-methyl-1H-imidazole-5-carboxamide], the concentration for a half-maximal effect (EC50) is below 10 nM.
Still for that read-out and setting: the same measure for `Cn1cnc(C2CC3CC(NC4CC4)CC3C2)c1C(=O)Nc1ccc(F)c(Cl)c1` (single isomer, unassigned) [Example 44, 5-[-5-(Cyclopropylamino)-1,2,3,3a,4,5,6,6a-octahydropentalen-2-yl]-N-(3-chloro-4-fluorophenyl)-3-methyl-4-imidazolecarboxamide]: 10 to 50 nM.
Regarding `CC(O)c1cc(C2(O)CC3CC(c4ncn(C)c4C(=O)Nc4ccc(F)c(Cl)c4)CC3C2)n(C)n1` (centres unmarked) [Example 109, N-(3-Chloro-4-fluorophenyl)-4-(5-hydroxy-5-(3-(1-hydroxyethyl)-1-methyl-1H-pyrazol-5-yl)octahydropentalen-2-yl)-1-methyl-1H-imidazole-5-carboxamide], the EC50 is below 10 nM.
Same read-out and setting: the figure for `Cn1cc(C2(O)CC3CC(c4ncn(C)c4C(=O)Nc4ccc(F)c(Cl)c4)CC3C2)c(C#N)n1` (centres unmarked) [Example 180, N-(3-Chloro-4-fluorophenyl)-4-(5-(3-cyano-1-methyl-1H-pyrazol-4-yl)-5-hydroxyoctahydropentalen-2-yl)-1-methyl-1H-imidazole-5-carboxamide] is below 10 nM; for `CCn1nc(C(F)F)cc1C1(O)CC2CC(c3ncn(C)c3C(=O)Nc3ccc(F)c(C#N)c3)CC2C1` (centres unmarked) [Example 192, N-(3-Cyano-4-fluorophenyl)-4-(5-(3-(difluoromethyl)-1-ethyl-1H-pyrazol-5-yl)-5-hydroxyoctahydropentalen-2-yl)-1-methyl-1H-imidazole-5-carboxamide] it is below 10 nM.
The same measure, in the same setting: the figure for `CC(=O)N1CCn2c(nc(C3CC4CC(O)CC4C3)c2C(=O)Nc2ccc(F)c(Cl)c2)C1` (centres unmarked) [Example 87, 7-acetyl-N-(3-chloro-4-fluorophenyl)-2-(5-hydroxyoctahydropentalen-2-yl)-5,6,7,8-tetrahydroimidazo[1,2-a]pyrazine-3-carboxamide] is below 10 nM.
Still for that read-out and setting: the same measure for `Cn1cnc(C2CC3CC(O)(c4[nH]ncc4Cl)CC3C2)c1C(=O)Nc1ccc(F)c(Cl)c1` (centres unmarked) [Example 143, 4-(5-(4-Chloro-1H-pyrazol-5-yl)-5-hydroxyoctahydropentalen-2-yl)-N-(3-chloro-4-fluorophenyl)-1-methyl-1H-imidazole-5-carboxamide]: below 10 nM; for `Cn1cnc(C2CC3CC(O)(c4cc(C(C)(C)C#N)nn4C)CC3C2)c1C(=O)Nc1ccc(F)c(Cl)c1` (centres unmarked) [Example 104, N-(3-chloro-4-fluorophenyl)-4-(5-(3-(2-cyanopropan-2-yl)-1-methyl-1H-pyrazol-5-yl)-5-hydroxyoctahydropentalen-2-yl)-1-methyl-1H-imidazole-5-carboxamide]: below 10 nM; for `Cn1cnc(C2CC3CC(O)(c4cc([N+](=O)[O-])n[nH]4)CC3C2)c1C(=O)Nc1ccc(F)c(Cl)c1` (centres unmarked) [Example 146, N-(3-Chloro-4-fluorophenyl)-4-(5-hydroxy-5-(3-nitro-1H-pyrazol-5-yl)octahydropentalen-2-yl)-1-methyl-1H-imidazole-5-carboxamide]: below 10 nM.
`Cn1cnc(C2CC3CC(O)(c4nn(C)c(C(F)(F)F)c4Br)CC3C2)c1C(=O)Nc1ccc(F)c(Cl)c1` (centres unmarked) [Example 142, 4-(5-(4-Bromo-1-methyl-5-(trifluoromethyl)-1H-pyrazol-3-yl)-5-hydroxyoctahydropentalen-2-yl)-N-(3-chloro-4-fluorophenyl)-1-methyl-1H-imidazole-5-carboxamide]: the EC50 is below 10 nM.
Consider `CN(C)c1cc(C2(O)CC3CC(c4ncn(C)c4C(=O)Nc4ccc(F)c(Cl)c4)CC3C2)n(C)n1` (centres unmarked) [Example 199, N-(3-Chloro-4-fluorophenyl)-4-(5-(3-(dimethylamino)-1-methyl-1H-pyrazol-5-yl)-5-hydroxyoctahydropentalen-2-yl)-1-methyl-1H-imidazole-5-carboxamide], for which the EC50 is below 10 nM.
The same measure, in the same setting: the same measure for `Cn1cc(C2(O)CC3CC(c4ncn(C)c4C(=O)Nc4ccc(F)c(Cl)c4)CC3C2)c(C(N)=O)n1` (centres unmarked) [Example 178, 4-(5-(5-((3-Chloro-4-fluorophenyl)carbamoyl)-1-methyl-1H-imidazol-4-yl)-2-hydroxyoctahydropentalen-2-yl)-1-methyl-1H-pyrazole-3-carboxamide]: below 10 nM; for `CC(C)n1nc(C(F)F)cc1C1(O)CC2CC(c3ncn(C)c3C(=O)Nc3ccc(F)c(Cl)c3)CC2C1` (centres unmarked) [Example 153, N-(3-Chloro-4-fluorophenyl)-4-(5-(3-(difluoromethyl)-1-isopropyl-1H-pyrazol-5-yl)-5-hydroxyoctahydropentalen-2-yl)-1-methyl-1H-imidazole-5-carboxamide]: below 10 nM.
As to `Cn1c(Cl)nc(C2CC3CC(O)CC3C2)c1C(=O)Nc1ccc(F)c(Cl)c1` (centres unmarked) [Example 22, 2-Chloro-N-(3-chloro-4-fluorophenyl)-4-(5-hydroxyoctahydropentalen-2-yl)-1-methyl-1H-imidazole-5-carboxamide], the EC50 is below 10 nM.
`Cn1cnc(C2CC3CC(O)(Cc4c(Br)cnn4C)CC3C2)c1C(=O)Nc1ccc(F)c(Cl)c1` (centres unmarked) [Example 123, 4-(5-((4-bromo-1-methyl-1H-pyrazol-5-yl)methyl)-5-hydroxyoctahydropentalen-2-yl)-N-(3-chloro-4-fluorophenyl)-1-methyl-1H-imidazole-5-carboxamide]: the EC50 is below 10 nM.
Consider `CC(=O)c1cc(C2(O)CC3CC(c4ncn(C)c4C(=O)Nc4ccc(F)c(Cl)c4)CC3C2)n(C)n1` (centres unmarked) [Example 58, 4-(5-(3-Acetyl-1-methyl-1H-pyrazol-5-yl)-5-hydroxyoctahydropentalen-2-yl)-N-(3-chloro-4-fluorophenyl)-1-methyl-1H-imidazole-5-carboxamide], for which the EC50 was below 10 nM.
The same measure, in the same setting: the figure for `Cn1nc(C(F)(F)F)cc1C1(O)CC2CC(c3nc(Cl)n(C)c3C(=O)Nc3ccc(F)c(Cl)c3)CC2C1` (centres unmarked) [Example 111, 2-Chloro-N-(3-chloro-4-fluorophenyl)-4-(5-hydroxy-5-(1-methyl-3-(trifluoromethyl)-1H-pyrazol-5-yl)octahydropentalen-2-yl)-1-methyl-1H-imidazole-5-carboxamide] is 10 to 50 nM; for `CC(CO)Nc1cc(C2(O)CC3CC(c4ncn(C)c4C(=O)Nc4ccc(F)c(Cl)c4)CC3C2)n(C)n1` (centres unmarked) [Example 217, N-(3-Chloro-4-fluorophenyl)-4-(5-hydroxy-5-(3-((1-hydroxypropan-2-yl)amino)-1-methyl-1H-pyrazol-5-yl)octahydropentalen-2-yl)-1-methyl-1H-imidazole-5-carboxamide] it is below 10 nM.

Staying with this assay, now noted: viral load lowering, 5 days, qPCR of supernatant, read-out: VL HepAD38 EC50 range.
Take `CC(O)c1nn(C)cc1C1(O)CC2CC(c3ncn(C)c3C(=O)Nc3ccc(F)c(Cl)c3)CC2C1` (single isomer, unassigned) [Example 189, N-(3-Chloro-4-fluorophenyl)-4-(5-hydroxy-5-(3-(1-hydroxyethyl)-1-methyl-1H-pyrazol-4-yl)octahydropentalen-2-yl)-1-methyl-1H-imidazole-5-carboxamide]: the concentration for a half-maximal effect (EC50) was below 10 nM.
